Measurements taken from BindingDB's records for doi:10.1111/j.1747-0285.2008.00745.x (University of Connecticut, 2009).

What follows are molecules tested against T1, Dihydrofolate reductase (Candida glabrata (strain ATCC 2001 / BCRC 20586 / JCM 3761 / NBRC 0622 / NRRL Y-65 / CBS 138), UniProt Q6FPH0) (assay: Enzyme Inhibition Assay).
T1 sequence (Q6FPH0 whole entry): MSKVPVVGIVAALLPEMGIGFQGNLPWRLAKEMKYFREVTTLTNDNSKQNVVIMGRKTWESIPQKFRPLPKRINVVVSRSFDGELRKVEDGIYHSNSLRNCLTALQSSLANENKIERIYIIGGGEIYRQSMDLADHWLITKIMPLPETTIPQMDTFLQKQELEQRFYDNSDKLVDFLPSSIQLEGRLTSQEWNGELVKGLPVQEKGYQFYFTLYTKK
Description: Enzyme activity assay were performed by monitoring the rate of enzyme-dependent NADPH consumption at an absorbance of 340 nm over 5 min.

| SMILES | IC50 |
| --- | --- |
| COc1cc(-c2ccc(C)cc2)cc([C@@H](C)C#Cc2c(C)nc(N)nc2N)c1 (racemic) | 0.61 nM |
| COc1ccc(-c2cc(OC)cc(C(C)C#Cc3c(C)nc(N)nc3N)c2)cc1 (racemic) | 6.4 nM |
| COc1cc(-c2cc(C)cc(C)c2)cc([C@@H](C)C#Cc2c(C)nc(N)nc2N)c1 (racemic) [Biphenyl antifolate, 2] | 0.55 nM |
| COc1cc(-c2c(C)cccc2C)cc(C(C)C#Cc2c(C)nc(N)nc2N)c1 (racemic) [Biphenyl antifolate, 6] | 5.5 nM |
| COc1cc(-c2ccc(C(C)(C)C)cc2)cc(C(C)C#Cc2c(C)nc(N)nc2N)c1 (racemic) [Biphenyl antifolate, 24] | 10 nM |
| COc1cc(-c2ccccc2C)cc(C(C)C#Cc2c(C)nc(N)nc2N)c1 (stereo unspecified) [5-{3-[3-methoxy-5-(2-methylphenyl)phenyl]but-1-yn-1-yl}-6-methylpyrimidine-2,4-diamine] | 7.3 nM |
